# Measurements reported in patent US20230131899A1, “INHIBITORS OF MICROBIALLY INDUCED AMYLOID” (Axial Therapeutics, Inc., priority 2020, published 2023).
# Where two headings read alike, the source gives them in different places.
# Columns and labels:
# E. coli CsgA = target: T1, E. coli CsgA (Escherichia coli, UniProt P28307); assay: In vitro ThioflavinT assay of CsgA aggregation (CsgA ThT Assay); type: biochemical
# T1 construct: made in house; host or cells: E. coli NEB 3016 slyD::kan, pET11d
# T1 sequence (P28307 23-151): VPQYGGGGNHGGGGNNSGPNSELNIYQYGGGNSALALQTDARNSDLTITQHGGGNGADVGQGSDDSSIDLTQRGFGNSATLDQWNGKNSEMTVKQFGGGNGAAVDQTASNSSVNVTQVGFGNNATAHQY
# Procedure, shortened: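 Purified C-terminal His-tagged CsgA, monomerised by desalting and 30-kDa filtration, at 2-20 μM with 20-40 μM ThT in 50 mM potassium phosphate pH 7.3, 1% DMSO, compounds 3.125-200 uM; room temperature, fluorescence (ex 438/em 495 nm) read every 15 min. Background-subtracted signal expressed as percent inhibition versus vehicle at 6-6.5 or 8-9 h, or as percent control AUC.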
# [1] = test system: CsgA gene expression (csgBAC promoter-GFP reporter) in E. coli UTI89; assay: In vitro live cell fluorescent reporter assay of CsgA transcription (Reporter Assay); type: cell-based
# Procedure, shortened: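 Compounds at 0.14–100 μM (1% DMSO final) incubated 20 h at 27 °C in YESCA broth with UTI89 carrying a single-copy GFP reporter under the csgBAC intergenic promoter region, inoculum OD600 0.003. Fluorescence normalized to vehicle wells gave IC50 and 50%-of-vehicle concentration; OD600 reduction >10% flagged growth impact.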
# [2] = read-out: CsgA ThT Assay (10 μM CsgA) % Control AUC at 1005 minutes, 25 μM (activity range), CsgA 10 μM, black plates, compound 25 μM, 1005 minutes, class symbol
# [3] = read-out: CsgA ThT Assay (10 μM CsgA) % Control AUC at 1005 minutes, 25 μM, mean AUC as % of DMSO control, CsgA 10 μM, black plates, compound 25 μM, 1005 minutes
# [4] = read-out: CsgA ThT Assay (10 μM CsgA) % Control AUC at 1005 minutes, 100 μM (activity range), CsgA 10 μM, black plates, compound 100 μM, 1005 minutes, class symbol
# [5] = read-out: CsgA ThT Assay (10 μM CsgA) % Control AUC at 1005 minutes, 100 μM, mean AUC as % of DMSO control, CsgA 10 μM, black plates, compound 100 μM, 1005 minutes
# [6] = Escherichia coli, read-out: Reporter Assay Abs IC50 (activity range), median Abs IC50 in the CsgA reporter assay, class symbol
# [7] = Escherichia coli, read-out: Reporter Assay Abs IC50 (μM), median Abs IC50 in the CsgA reporter assay, N/A = maximum expression reduction is <50% of control
# [8] = read-out: CsgA ThT Assay (2 μM CsgA) % Control Bmax 25 μM, activity range, class symbol, CsgA 2 μM, white plates, compound 25 μM
# [9] = read-out: CsgA ThT Assay (2 μM CsgA) % Control Bmax 25 μM, mean Bmax as percentage of DMSO control, CsgA 2 μM, white plates, compound 25 μM
# [10] = read-out: CsgA ThT Assay (2 μM CsgA) % Control Bmax 100 μM, activity range, class symbol, CsgA 2 μM, white plates, compound 100 μM
# [11] = read-out: CsgA ThT Assay (2 μM CsgA) % Control Bmax 100 μM, mean Bmax as percentage of DMSO control, CsgA 2 μM, white plates, compound 100 μM
# [12] = Escherichia coli, read-out: Reporter Assay Abs IC50, activity range, class symbol
Compound,remaining activity at 25 µM (E. coli CsgA; [2]) [%],remaining activity at 25 µM (E. coli CsgA; [3]) [%],remaining activity at 100 µM (E. coli CsgA; [4]) [%],remaining activity at 100 µM (E. coli CsgA; [5]) [%],"IC50 [1, 6] [µM]","IC50 [1, 7] [µM]",remaining activity at 25 µM (E. coli CsgA; [8]) [%],remaining activity at 25 µM (E. coli CsgA; [9]) [%],remaining activity at 100 µM (E. coli CsgA; [10]) [%],remaining activity at 100 µM (E. coli CsgA; [11]) [%],"IC50 [1, 12] [µM]","CsgA ThT Assay (10 μM CsgA) % Control AUC at 1005 minutes, 25 μM (activity range) (E. coli CsgA; CsgA 10 μM, black plates, compound 25 μM, 1005 minutes, class symbol)","CsgA ThT Assay (10 μM CsgA) % Control AUC at 1005 minutes, 100 μM (activity range) (E. coli CsgA; CsgA 10 μM, black plates, compound 100 μM, 1005 minutes, class symbol)","CsgA ThT Assay (10 μM CsgA) % Control AUC at 1005 minutes, 25 μM (E. coli CsgA; mean AUC as % of DMSO control, CsgA 10 μM, black plates, compound 25 μM, 1005 minutes) [%]","CsgA ThT Assay (10 μM CsgA) % Control AUC at 1005 minutes, 100 μM (E. coli CsgA; mean AUC as % of DMSO control, CsgA 10 μM, black plates, compound 100 μM, 1005 minutes) [%]","IC50 ([1]; read-out: Reporter Assay Abs IC50 (activity range), median Abs IC50 in the CsgA reporter assay, class symbol) [µM]","IC50 ([1]; read-out: Reporter Assay Abs IC50, median Abs IC50 in the CsgA reporter assay, N/A = maximum expression reduction is <50% of control) [µM]"
"CN1CC(C(=O)O)n2c(c(-c3cccc(C(F)(F)F)c3)c(Cc3cccc4ccccc34)c(NC3CCNCC3)c2=O)S1(=O)=O (stereo not drawn) [Compound 091, 2-methyl-8-(naphthalen-1-ylmethyl)-6-oxo-7-(piperidin-4-ylamino)-9-(3-(trifluoromethyl)phenyl)-3,4-dihydro-2H,6H-pyrido[1,2-e][1,2,5]thiadiazine-4-carboxylic acid 1,1-dioxide]",> 60,90,> 60,65,4.6 to 10,5.6,,,,,,,,,,,
"Nc1c(Cc2cccc3ccccc23)c(-c2cccc(C(F)(F)F)c2)c2n(c1=O)C(C(=O)O)CN(C[C@@H](O)CO)S2(=O)=O (stereo partly drawn) [Compound 096, 7-amino-2-((R)-2,3-dihydroxypropyl)-8-(naphthalen-1-ylmethyl)-6-oxo-9-(3-(trifluoromethyl)phenyl)-3,4-dihydro-2H,6H-pyrido[1,2-e][1,2,5]thiadiazine-4-carboxylic acid 1,1-dioxide]",> 60,79,> 60,71,> 10,22.9,,,,,,,,,,,
"O=C(O)C1CN(C2CCCCC2)S(=O)(=O)c2c(-c3cccc(C(F)(F)F)c3)c(Cc3cccc4ccccc34)c(NC3CCCC3)c(=O)n21 (stereo not drawn) [Compound 131, 2-cyclohexyl-7-(cyclopentylamino)-8-(naphthalen-1-ylmethyl)-6-oxo-9-(3-(trifluoromethyl)phenyl)-3,4-dihydro-2H,6H-pyrido[1,2-e][1,2,5]thiadiazine-4-carboxylic acid 1,1-dioxide]",,,,,,0.9,31 to 60,53,> 60,94,< 1.3,,,,,,
"CCc1c(Cc2cccc3ccccc23)c(-c2cccc(C(F)(F)F)c2)c2n(c1=O)C(C(=O)O)CN(CCCO)S2(=O)=O (stereo not drawn) [Compound 112, 7-ethyl-2-(3-hydroxypropyl)-8-(naphthalen-1-ylmethyl)-6-oxo-9-(3-(trifluoromethyl)phenyl)-3,4-dihydro-2H,6H-pyrido[1,2-e][1,2,5]thiadiazine-4-carboxylic acid 1,1-dioxide]",31 to 60,35,11 to 31,20,4.6 to 10,9,,,,,,,,,,,
"Nc1c(Cc2cccc3ccccc23)c(-c2cccc(C(F)(F)F)c2)c2n(c1=O)C(C(=O)O)CN(C[C@H](O)[C@@H](O)[C@H](O)[C@H](O)CO)S2(=O)=O (stereo partly drawn) [Compound 105, 7-amino-8-(naphthalen-1-ylmethyl)-6-oxo-2-((2S,3R,4R,5R)-2,3,4,5,6-pentahydroxyhexyl)-9-(3-(trifluoromethyl)phenyl)-3,4-dihydro-2H,6H-pyrido[1,2-e][1,2,5]thiadiazine-4-carboxylic acid 1,1-dioxide]",> 60,102,> 60,70,> 10,36,,,,,,,,,,,
"CCN1CC(C(=O)O)n2c(c(-c3cccc(C(F)(F)F)c3)c(Cc3cccc4ccccc34)cc2=O)S1(=O)=O (single isomer, unassigned) [Compound 015b, 2-ethyl-8-(naphthalen-1-ylmethyl)-6-oxo-9-(3-(trifluoromethyl)phenyl)-3,4-dihydro-2H,6H-pyrido[1,2-e][1,2,5]thiadiazine-4-carboxylic acid 1,1-dioxide]",,,,,,,,,,,,(+++) (% control AUC of 11 to 31%),(+++) (% control AUC of 11 to 31%),29,23,> 10,22.5
"CCc1c(Cc2cccc3ccccc23)c(-c2cccc(C(F)(F)F)c2)c2n(c1=O)C(C(=O)O)CN([C@H]1CC[C@@H](O)CC1)S2(=O)=O (stereo partly drawn) [Compound 124, 7-ethyl-2-((1s,4s)-4-hydroxycyclohexyl)-8-(naphthalen-1-ylmethyl)-6-oxo-9-(3-(trifluoromethyl)phenyl)-3,4-dihydro-2H,6H-pyrido[1,2-e][1,2,5]thiadiazine-4-carboxylic acid 1,1-dioxide]",31 to 60,35,11 to 31,21,1.3 to 4.5,3.1,,,,,,,,,,,
"CN1CC(C(=O)O)n2c(c(-c3cccc(C(F)(F)F)c3)c(Cc3cccc4ccccc34)c(N3CCNCC3)c2=O)S1(=O)=O (stereo not drawn) [Compound 102, 2-methyl-8-(naphthalen-1-ylmethyl)-6-oxo-7-(piperazin-1-yl)-9-(3-(trifluoromethyl)phenyl)-3,4-dihydro-2H,6H-pyrido[1,2-e][1,2,5]thiadiazine-4-carboxylic acid 1,1-dioxide]",> 60,90,31 to 60,57,4.6 to 10,5.4,,,,,,,,,,,
"CCCN1CC(C(=O)O)n2c(c(-c3cccc(C(F)(F)F)c3)c(Cc3cccc4ccccc34)c(N)c2=O)S1(=O)=O (stereo not drawn) [Compound 089, 7-amino-8-(naphthalen-1-ylmethyl)-6-oxo-2-propyl-9-(3-(trifluoromethyl)phenyl)-3,4-dihydro-2H,6H-pyrido[1,2-e][1,2,5]thiadiazine-4-carboxylic acid 1,1-dioxide]",31 to 60,31,11 to 31,23,4.6 to 10,8,,,,,,,,,,,
"CC(C)(C)c1ccc(CN2CC(C(=O)O)n3c2c(-c2cccc(C(F)(F)F)c2)c(Cc2cccc4ccccc24)c(Cl)c3=O)cc1 (stereo not drawn) [Compound 208, 1-(4-(tert-butyl)benzyl)-6-chloro-7-(naphthalen-1-ylmethyl)-5-oxo-8-(3-(trifluoromethyl)phenyl)-1,2,3,5-tetrahydroimidazo[1,2-a]pyridine-3-carboxylic acid]",,,,,,1,31 to 60,46,11 to 31,25,< 1.3,,,,,,
"CN1CC(C(=O)O)n2c(c(-c3cccc(C(F)(F)F)c3)c(Cc3cccc4ccccc34)c(Br)c2=O)S1(=O)=O (stereo not drawn) [Compound 058, 7-bromo-2-methyl-8-(naphthalen-1-ylmethyl)-6-oxo-9-(3-(trifluoromethyl)phenyl)-3,4-dihydro-2H,6H-pyrido[1,2-e][1,2,5]thiadiazine-4-carboxylic acid 1,1-dioxide]",31 to 60,47,11 to 31,22,> 10,19.8,,,,,,,,,,,
"CCCN1CC(C(=O)O)n2c(c(-c3cccc(C(F)(F)F)c3)c(Cc3cccc4ccccc34)c(CC)c2=O)S1(=O)=O (stereo not drawn) [Compound 117, 7-ethyl-8-(naphthalen-1-ylmethyl)-6-oxo-2-propyl-9-(3-(trifluoromethyl)phenyl)-3,4-dihydro-2H,6H-pyrido[1,2-e][1,2,5]thiadiazine-4-carboxylic acid 1,1-dioxide]",31 to 60,32,11 to 31,22,4.6 to 10,5.9,,,,,,,,,,,
